{
  "source": "ChEMBL document CHEMBL5365420",
  "about": "“Kinetics, Thermodynamics, and Structural Effects of Quinoline-2-Carboxylates, Zinc-Binding Inhibitors of New Delhi Metallo-β-lactamase-1 Re-sensitizing Multidrug-Resistant Bacteria for Carbapenems” (J Med Chem, 2023)",
  "key": {"[1]": {"system": "Escherichia coli", "test": "Antibacterial activity against clinical isolate Escherichia coli K12 J53-ST10 696/17 expressing blaNDM-1 co-expressing blaCMY-4 assessed as meropenem MIC at 80 uM measured after 20 hrs by broth microdilution assay (reference value: 21.3 mg/L)", "assay_type": "functional"}, "[2]": {"target": "T1, 72 kDa type IV collagenase (Homo sapiens, UniProt P08253)", "test": "Binding affinity to human recombinant MMP-2 CD assessed as inhibition constant using OMNIMMP as substrate incubated for 30 mins by fluorescence based analysis"}, "[3]": {"system": "Escherichia coli", "test": "Antibacterial activity against clinical isolate Escherichia coli K12 J53-ST10 618/15 expressing blaNDM-1 assessed as meropenem MIC at 40 uM measured after 20 hrs by broth microdilution assay (reference value: 10.65 mg/L)", "assay_type": "functional"}, "[4]": {"target": "Histone deacetylase 1 (Homo sapiens) (UniProt Q13547)", "sequence (Q13547 whole entry)": "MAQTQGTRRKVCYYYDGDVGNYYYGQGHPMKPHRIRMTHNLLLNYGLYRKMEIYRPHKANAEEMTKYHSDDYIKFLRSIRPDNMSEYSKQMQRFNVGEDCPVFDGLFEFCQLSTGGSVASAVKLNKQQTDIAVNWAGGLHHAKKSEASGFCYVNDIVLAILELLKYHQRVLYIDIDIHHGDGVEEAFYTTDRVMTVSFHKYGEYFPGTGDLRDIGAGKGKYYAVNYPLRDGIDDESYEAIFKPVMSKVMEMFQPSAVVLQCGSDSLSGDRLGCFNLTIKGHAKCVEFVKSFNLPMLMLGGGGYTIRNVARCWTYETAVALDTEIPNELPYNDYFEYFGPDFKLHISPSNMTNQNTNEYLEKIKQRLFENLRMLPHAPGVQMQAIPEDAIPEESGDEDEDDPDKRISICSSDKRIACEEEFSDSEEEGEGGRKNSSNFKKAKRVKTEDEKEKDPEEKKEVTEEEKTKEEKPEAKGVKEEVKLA", "test": "Inhibition of C-terminal 6His/FLAG-tagged human recombinant full-length HDAC1 (1 to 482(end) residues) at 10 uM using Boc-Lys-(Ac)-AMC as substrate incubated for 10 mins followed by substrate addition measured after 1 hr by fluorescence based analysis relative to control", "details": "time 70.0 min"}, "[5]": {"system": "Escherichia coli", "test": "Antibacterial activity against clinical isolate Escherichia coli 371/12 expressing blaNDM-7 co-expressing blaCTX-M-15 and blaOXA-1 assessed as meropenem MIC at 40 uM measured after 20 hrs by broth microdilution assay (reference value: 10.65 mg/L)", "assay_type": "functional"}, "[6]": {"target": "Metallo-beta-lactamase type 2 (Bacteria, UniProt C7C422)", "sequence (C7C422 whole entry)": "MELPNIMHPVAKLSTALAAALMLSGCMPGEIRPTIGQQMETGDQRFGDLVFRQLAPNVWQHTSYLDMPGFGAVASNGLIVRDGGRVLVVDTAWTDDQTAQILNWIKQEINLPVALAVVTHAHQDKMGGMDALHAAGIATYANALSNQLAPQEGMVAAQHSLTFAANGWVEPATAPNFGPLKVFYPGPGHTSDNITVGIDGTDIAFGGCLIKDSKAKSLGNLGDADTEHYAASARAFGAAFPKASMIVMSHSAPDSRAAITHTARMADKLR", "description": "Inhibition of C-terminal 6His-tagged full length NDM-1 (unknown origin) expressed in Escherichia coli BL21-DE3 using nitrocefin as substrate incubated for 15 mins followed by substrate addition by absorbance based microplate reader analysis"}, "[7]": {"system": "Klebsiella pneumoniae", "test": "Antibacterial activity against clinical isolate Klebsiella pneumoniae 50/20 expressing blaNDM-5 co-expressing blaTEM-1 and blaSHV-1 assessed as meropenem MIC at 40 uM measured after 20 hrs by broth microdilution assay (reference value: 10.65 mg/L)", "assay_type": "functional"}, "[8]": {"system": "Klebsiella pneumoniae", "test": "Antibacterial activity against clinical isolate Klebsiella pneumoniae 62/07 expressing blaVIM-19 co-expressing blaSHV-1/blaCTX-M-14 and blaCMY-4 assessed as meropenem MIC at 40 uM measured after 20 hrs by broth microdilution assay (reference value: 10.65 mg/L)", "assay_type": "functional"}, "[9]": {"system": "Escherichia coli", "test": "Antibacterial activity against clinical isolate Escherichia coli ST1012/10 expressing blaNDM-1 co-expressing blaTEM-1/blaCTX-M-15/blaOXA-1 and blaOXA-2 assessed as meropenem MIC at 40 uM measured after 20 hrs by broth microdilution assay (reference value: 10.65 mg/L)", "assay_type": "functional"}, "[10]": {"system": "Escherichia coli", "test": "Antibacterial activity against clinical isolate Escherichia coli ST1012/10 expressing blaNDM-1 co-expressing blaTEM-1/blaCTX-M-15/blaOXA-1 and blaOXA-2 assessed as meropenem MIC at 80 uM measured after 20 hrs by broth microdilution assay (reference value: 21.3 mg/L)", "assay_type": "functional"}, "[11]": {"system": "Klebsiella pneumoniae", "test": "Antibacterial activity against clinical isolate Klebsiella pneumoniae 50/11 expressing blaNDM-1 co-expressing blaTEM-1/blaSHV-28/blaTEM-1/blaCTX-M-15 and blaOXA-1 assessed as meropenem MIC at 80 uM measured after 20 hrs by broth microdilution assay (reference value: 21.3 mg/L)", "assay_type": "functional"}, "[12]": {"system": "Escherichia coli", "test": "Antibacterial activity against clinical isolate Escherichia coli K12 J53-ST10 618/15 expressing blaNDM-1 assessed as meropenem MIC at 80 uM measured after 20 hrs by broth microdilution assay (reference value: 21.3 mg/L)", "assay_type": "functional"}, "[13]": {"system": "Klebsiella pneumoniae", "test": "Antibacterial activity against clinical isolate Klebsiella pneumoniae ST1493/10 expressing blaNDM-1 co-expressing blaCMY-2like/blaTEM-1/blaCTX-M-15/blaSHV-28/blaOXA-1 and blaOXA-9 assessed as meropenem MIC at 40 uM measured after 20 hrs by broth microdilution assay (reference value: 10.65 mg/L)", "assay_type": "functional"}, "[14]": {"test": "Inhibition of IMP-1 (unknown origin) expressed in Escherichia coli BL21-DE3 incubated for 15 mins by absorbance based microplate reader analysis", "parameters": "species or system Bacteria"}, "[15]": {"system": "Acinetobacter baumannii", "test": "Antibacterial activity against clinical isolate Acinetobacter baumannii IC 19/09 expressing blaNDM-1 co-expressing blaOXA-64 assessed as meropenem MIC at 80 uM measured after 20 hrs by broth microdilution assay (reference value: 21.3 mg/L)", "assay_type": "functional"}, "[16]": {"system": "Escherichia coli", "test": "Antibacterial activity against clinical isolate Escherichia coli 371/12 expressing blaNDM-7 co-expressing blaCTX-M-15 and blaOXA-1 assessed as meropenem MIC at 80 uM measured after 20 hrs by broth microdilution assay (reference value: 21.3 mg/L)", "assay_type": "functional"}, "[17]": {"system": "Escherichia coli", "test": "Antibacterial activity against clinical isolate Escherichia coli K12 J53-ST10 696/17 expressing blaNDM-1 co-expressing blaCMY-4 assessed as meropenem MIC at 40 uM measured after 20 hrs by broth microdilution assay (reference value: 10.65 mg/L)", "assay_type": "functional"}, "[18]": {"system": "Escherichia coli", "test": "Antibacterial activity against clinical isolate Escherichia coli K12 J53-ST10 699/15 expressing blaNDM-1 assessed as meropenem MIC at 80 uM measured after 20 hrs by broth microdilution assay (reference value: 21.3 mg/L)", "assay_type": "functional"}, "[19]": {"system": "Escherichia coli", "test": "Antibacterial activity against clinical isolate Escherichia coli K12 J53-ST10 684/18 expressing blaNDM-1 co-expressing blaCMY-2 and blaOXA-10 assessed as meropenem MIC at 40 uM measured after 20 hrs by broth microdilution assay (reference value: 10.65 mg/L)", "assay_type": "functional"}, "[20]": {"target": "Carbonic anhydrase 2 (Homo sapiens) (UniProt P00918)", "test": "Inhibition of human CA2 at 10 uM using pNPA as substrate preincubated for 15 mins followed by substrate by absorbance based analysis relative to control"}, "[21]": {"system": "Klebsiella pneumoniae", "test": "Antibacterial activity against clinical isolate Klebsiella pneumoniae ST23213/19 expressing blaNDM-1 co-expressing blaOXA-48/blaSHV-11/blaCTX-M-15 and blaOXA-1 assessed as meropenem MIC at 80 uM measured after 20 hrs by broth microdilution assay (reference value: 21.3 mg/L)", "assay_type": "functional"}, "[22]": {"system": "Escherichia coli", "test": "Antibacterial activity against clinical isolate Escherichia coli K12 J53-ST10 699/15 expressing blaNDM-1 assessed as meropenem MIC at 40 uM measured after 20 hrs by broth microdilution assay (reference value: 10.65 mg/L)", "assay_type": "functional"}, "[23]": {"test": "Inhibition of GIM1 (unknown origin) incubated for 15 mins by absorbance based microplate reader analysis", "parameters": "species or system Bacteria"}, "[24]": {"system": "Acinetobacter baumannii", "test": "Antibacterial activity against clinical isolate Acinetobacter baumannii IC 19/09 expressing blaNDM-1 co-expressing blaOXA-64 assessed as meropenem MIC at 40 uM measured after 20 hrs by broth microdilution assay (reference value: 10.65 mg/L)", "assay_type": "functional"}, "[25]": {"system": "Klebsiella pneumoniae", "test": "Antibacterial activity against clinical isolate Klebsiella pneumoniae ST23213/19 expressing blaNDM-1 co-expressing blaOXA-48/blaSHV-11/blaCTX-M-15 and blaOXA-1 assessed as meropenem MIC at 40 uM measured after 20 hrs by broth microdilution assay (reference value: 10.65 mg/L)", "assay_type": "functional"}, "[26]": {"system": "Klebsiella pneumoniae", "test": "Antibacterial activity against clinical isolate Klebsiella pneumoniae 50/11 expressing blaNDM-1 co-expressing blaTEM-1/blaSHV-28/blaTEM-1/blaCTX-M-15 and blaOXA-1 assessed as meropenem MIC at 40 uM measured after 20 hrs by broth microdilution assay (reference value: 10.65 mg/L)", "assay_type": "functional"}, "[27]": {"system": "Escherichia coli", "test": "Antibacterial activity against clinical isolate Escherichia coli K12 J53-ST10 684/18 expressing blaNDM-1 co-expressing blaCMY-2 and blaOXA-10 assessed as meropenem MIC at 80 uM measured after 20 hrs by broth microdilution assay (reference value: 21.3 mg/L)", "assay_type": "functional"}, "[28]": {"test": "Inhibition of VIM-2 (unknown origin) incubated for 15 mins by absorbance based microplate reader analysis", "parameters": "species or system Bacteria"}, "[29]": {"test": "Selectivity ratio of Ki for human recombinant MMP-2 CD to Ki for C-terminal 6His-tagged full length NDM-1 (unknown origin)"}, "[30]": {"target": "T1, 72 kDa type IV collagenase", "test": "Inhibition of human recombinant MMP-2 CD at 10 uM using OMNIMMP as substrate incubated for 30 mins by fluorescence based analysis relative to control"}, "[31]": {"system": "Klebsiella pneumoniae", "test": "Antibacterial activity against clinical isolate Klebsiella pneumoniae ST1493/10 expressing blaNDM-1 co-expressing blaCMY-2like/blaTEM-1/blaCTX-M-15/blaSHV-28/blaOXA-1 and blaOXA-9 assessed as meropenem MIC at 80 uM measured after 20 hrs by broth microdilution assay (reference value: 21.3 mg/L)", "assay_type": "functional"}, "[32]": {"system": "Klebsiella pneumoniae", "test": "Antibacterial activity against clinical isolate Klebsiella pneumoniae 62/07 expressing blaVIM-19 co-expressing blaSHV-1/blaCTX-M-14 and blaCMY-4 assessed as meropenem MIC at 80 uM measured after 20 hrs by broth microdilution assay (reference value: 21.3 mg/L)", "assay_type": "functional"}, "[33]": {"system": "Klebsiella pneumoniae", "test": "Antibacterial activity against clinical isolate Klebsiella pneumoniae 50/20 expressing blaNDM-5 co-expressing blaTEM-1 and blaSHV-1 assessed as meropenem MIC at 80 uM measured after 20 hrs by broth microdilution assay (reference value: 21.3 mg/L)", "assay_type": "functional"}},
  "data": [
    {"smiles": "CS(=O)(=O)Nc1cccc2ccc(C(=O)O)nc12", "values": [
      {"measurement": "MIC", "setting": "[1]", "value": "≤ 0.125", "unit": "µg/mL"},
      {"measurement": "Ki", "setting": "[2]", "value": 4.08, "unit": "µM"},
      {"measurement": "MIC", "setting": "[3]", "value": "≤ 0.125", "unit": "µg/mL"},
      {"measurement": "inhibition", "setting": "[4]", "value": "< 5", "unit": "%"},
      {"measurement": "MIC", "setting": "[5]", "value": 2, "unit": "µg/mL"},
      {"measurement": "IC50", "setting": "[6]", "value": 1.64, "unit": "µM"},
      {"measurement": "MIC", "setting": "[7]", "value": "≤ 0.125", "unit": "µg/mL"},
      {"measurement": "MIC", "setting": "[8]", "value": 1, "unit": "µg/mL"},
      {"measurement": "MIC", "setting": "[9]", "value": "≤ 0.125", "unit": "µg/mL"},
      {"measurement": "MIC", "setting": "[10]", "value": "≤ 0.125", "unit": "µg/mL"},
      {"measurement": "MIC", "setting": "[11]", "value": "≤ 0.125", "unit": "µg/mL"},
      {"measurement": "MIC", "setting": "[12]", "value": "≤ 0.125", "unit": "µg/mL"},
      {"measurement": "MIC", "setting": "[13]", "value": 4, "unit": "µg/mL"},
      {"measurement": "IC50", "setting": "[14]", "value": 7.27, "unit": "µM"},
      {"measurement": "MIC", "setting": "[15]", "value": 2, "unit": "µg/mL"},
      {"measurement": "MIC", "setting": "[16]", "value": 0.25, "unit": "µg/mL"},
      {"measurement": "MIC", "setting": "[17]", "value": "≤ 0.125", "unit": "µg/mL"},
      {"measurement": "MIC", "setting": "[18]", "value": "≤ 0.125", "unit": "µg/mL"},
      {"measurement": "MIC", "setting": "[19]", "value": "≤ 0.125", "unit": "µg/mL"},
      {"measurement": "inhibition", "setting": "[20]", "value": "< 5", "unit": "%"},
      {"measurement": "MIC", "setting": "[21]", "value": 16, "unit": "µg/mL"},
      {"measurement": "MIC", "setting": "[22]", "value": "≤ 0.125", "unit": "µg/mL"},
      {"measurement": "IC50", "setting": "[23]", "value": 50.1, "unit": "µM"},
      {"measurement": "MIC", "setting": "[24]", "value": 4, "unit": "µg/mL"},
      {"measurement": "MIC", "setting": "[25]", "value": 16, "unit": "µg/mL"},
      {"measurement": "MIC", "setting": "[26]", "value": "≤ 0.125", "unit": "µg/mL"},
      {"measurement": "MIC", "setting": "[27]", "value": "≤ 0.125", "unit": "µg/mL"},
      {"measurement": "IC50", "setting": "[28]", "value": 0.79, "unit": "µM"},
      {"measurement": "Ratio Ki", "setting": "[29]", "value": 5},
      {"measurement": "inhibition", "setting": "[30]", "value": "> 90", "unit": "%"},
      {"measurement": "MIC", "setting": "[31]", "value": 2, "unit": "µg/mL"},
      {"measurement": "MIC", "setting": "[32]", "value": 0.5, "unit": "µg/mL"},
      {"measurement": "MIC", "setting": "[33]", "value": "≤ 0.125", "unit": "µg/mL"}
    ]}
  ]
}
